Laboratory results taken from patent US6534447B1, “Herbicidal pyridine compounds” (BASF Aktiengesellschaft, priority 1999, dated 2003).

Experiments:
Format in all cases: in vivo
[1] = tested on: Echinochloa grus galli (ECHCG, barnyard grass); assay: Pre-emergence herbicidal evaluation; details: 3 weeks after treatment
Description: (§1) The pre-emergence herbicidal activity of the compounds of the present invention is exemplified by the following test in which the seeds of a variety of monocotyledonous and dicotyledonous plants are seperately mixed with potting soil and planted on top of approximately one inch of soil in separate post. After planting, the pots are sprayed with the selected aqueous acetone solution. containing test compound in sufficient quantity to provide the equivalent of about 0.025 to 0.4 kg per hectare of test compound per pot. The treated pots are then placed on greenhouse benches, watered and cared for in accordance with conventional greenhouse procedures. From 3 weeks after treatment, the tests are terminated and each pot is examined and rated according to the rating system set forth below. [table] [table]

[2] = tested on: Setaria viridis (SETVI, green foxtail); assay: Pre-emergence herbicidal evaluation; details: 3 weeks after treatment
Description: as §1

[3] = tested on: Stellaria media (STEME, chickweed); assay: Pre-emergence herbicidal evaluation; details: 3 weeks after treatment
Description: as §1

[4] = tested on: Abutilon theophrasti (ABUTH, velvetleaf); assay: Pre-emergence herbicidal evaluation; details: 3 weeks after treatment
Description: as §1

[5] = tested on: Galium aparine (GALAP, cleaver); assay: Pre-emergence herbicidal evaluation; details: 3 weeks after treatment
Description: as §1

[6] = tested on: Matricaria inodora (MATIN, mayweed); assay: Pre-emergence herbicidal evaluation; details: 3 weeks after treatment
Description: as §1

[7] = tested on: Ipomoea hederacea (IPOHE, morning glory); assay: Pre-emergence herbicidal evaluation; details: 3 weeks after treatment
Description: as §1

[8] = tested on: Alopecurus myosuroides (ALOMY, black grass); assay: Pre-emergence herbicidal evaluation; details: 3 weeks after treatment
Description: as §1

[9] = tested on: Triticum aestivum (TRZAW, winter wheat); assay: Pre-emergence herbicidal evaluation (crop); details: 3 weeks after treatment
Description: as §1

[10] = tested on: Glycine max (GLXMA, soyabeans); assay: Pre-emergence herbicidal evaluation (crop); details: 3 weeks after treatment
Description: as §1

Zea mays (ZEAMX, maize) = assay: Pre-emergence herbicidal evaluation (crop); details: 3 weeks after treatment
Description: as §1

[11] = tested on: Echinochloa grus galli (ECHCG, barnyard grass); assay: Post-emergence herbicidal evaluation; details: 3 weeks after treatment
Experimental: (§2) These acetone solutions are diluted with water and the resulting formulations applied at dosage levels equivalent of about 0.025 to 0.4 kg per hectare of test compound per pot. After spraying the plants are placed on greenhouse benches and are cared for in the usual manner, commensurate with conventional greenhouse practices. From 3 weeks after treatment, the seedling plants are examined and rated according to the rating system provided above. A rating 0 indicates growth as untreated control, a rating 9 indicates death.

[12] = tested on: Dolium multiflorum (LOLMU, ryegrass); assay: Post-emergence herbicidal evaluation; details: rate 0.100 kg/ha, 3 weeks after treatment
Experimental: as §2

[13] = tested on: Setaria viridis (SETVI, green foxtail); assay: Post-emergence herbicidal evaluation; details: 3 weeks after treatment
Experimental: as §2

[14] = tested on: Stellaria media (STEME, chickweed); assay: Post-emergence herbicidal evaluation; details: 3 weeks after treatment
Experimental: as §2

[15] = tested on: Abutilon theophrasti (ABUTH, velvetleaf); assay: Post-emergence herbicidal evaluation; details: 3 weeks after treatment
Experimental: as §2

[16] = tested on: Galium aparine (GALAP, cleaver); assay: Post-emergence herbicidal evaluation; details: 3 weeks after treatment
Experimental: as §2

[17] = tested on: Matricaria inodora (MATIN, mayweed); assay: Post-emergence herbicidal evaluation; details: 3 weeks after treatment
Experimental: as §2

[18] = tested on: Ipomoea hederacea (IPOHE, morning glory); assay: Post-emergence herbicidal evaluation; details: 3 weeks after treatment
Experimental: as §2

[19] = tested on: Alopecurus myosuroides (ALOMY, black grass); assay: Post-emergence herbicidal evaluation; details: 3 weeks after treatment
Experimental: as §2

Cc1cc(OCCSC(F)(F)F)nc(Oc2ccnc(C(F)(F)F)c2)c1 [Example 51]
ECHCG rating ([1]; rate 0.025 kg/ha): 7 (7 - Good herbicidal effect)
ECHCG rating ([1]; rate 0.100 kg/ha): 9 (9 - Complete kill)
ECHCG rating ([1]; rate 0.400 kg/ha): 9 (9 - Complete kill)
SETVI rating ([2]; rate 0.025 kg/ha): 8 (8 - Approaching complete kill)
SETVI rating ([2]; rate 0.100 kg/ha): 8 (8 - Approaching complete kill)
SETVI rating ([2]; rate 0.400 kg/ha): 9 (9 - Complete kill)
STEME rating ([3]; rate 0.025 kg/ha): 9 (9 - Complete kill)
STEME rating ([3]; rate 0.100 kg/ha): 9 (9 - Complete kill)
STEME rating ([3]; rate 0.400 kg/ha): 9 (9 - Complete kill)
ABUTH rating ([4]; rate 0.025 kg/ha): 9 (9 - Complete kill)
ABUTH rating ([4]; rate 0.100 kg/ha): 9 (9 - Complete kill)
ABUTH rating ([4]; rate 0.400 kg/ha): 9 (9 - Complete kill)
GALAP rating ([5]; rate 0.025 kg/ha): 8 (8 - Approaching complete kill)
GALAP rating ([5]; rate 0.100 kg/ha): 8 (8 - Approaching complete kill)
GALAP rating ([5]; rate 0.400 kg/ha): 8 (8 - Approaching complete kill)
MATIN rating ([6]; rate 0.025 kg/ha): 8 (8 - Approaching complete kill)
MATIN rating ([6]; rate 0.100 kg/ha): 9 (9 - Complete kill)
MATIN rating ([6]; rate 0.400 kg/ha): 9 (9 - Complete kill)
IPOHE rating ([7]; rate 0.025 kg/ha): 9 (9 - Complete kill)
IPOHE rating ([7]; rate 0.100 kg/ha): 9 (9 - Complete kill)
IPOHE rating ([7]; rate 0.400 kg/ha): 9 (9 - Complete kill)
ALOMY rating ([8]; rate 0.025 kg/ha): 8 (8 - Approaching complete kill)
ALOMY rating ([8]; rate 0.100 kg/ha): 8 (8 - Approaching complete kill)
ALOMY rating ([8]; rate 0.400 kg/ha): 8 (8 - Approaching complete kill)
TRZAW rating ([9]; rate 0.025 kg/ha): 2 (2 - Slight effect)
TRZAW rating ([9]; rate 0.100 kg/ha): 4 (4 - Injury)
TRZAW rating ([9]; rate 0.400 kg/ha): 6 (6 - Herbicidal effect)
GLXMA rating ([10]; rate 0.025 kg/ha): 4 (4 - Injury)
GLXMA rating ([10]; rate 0.100 kg/ha): 5 (5 - Definite injury)
GLXMA rating ([10]; rate 0.400 kg/ha): 6 (6 - Herbicidal effect)
ZEAMX rating (Zea mays (ZEAMX, maize); rate 0.025 kg/ha): 3 (3 - Moderate effect)
ZEAMX rating (Zea mays (ZEAMX, maize); rate 0.100 kg/ha): 4 (4 - Injury)
ZEAMX rating (Zea mays (ZEAMX, maize); rate 0.400 kg/ha): 5 (5 - Definite injury)
ECHCG rating ([11]; rate 0.025 kg/ha): 9 (9 - Complete kill)
ECHCG rating ([11]; rate 0.100 kg/ha): 9 (9 - Complete kill)
ECHCG rating ([11]; rate 0.400 kg/ha): 9 (9 - Complete kill)
LOLMU rating [12]: 8 (8 - Approaching complete kill)
SETVI rating ([13]; rate 0.025 kg/ha): 8 (8 - Approaching complete kill)
SETVI rating ([13]; rate 0.100 kg/ha): 9 (9 - Complete kill)
SETVI rating ([13]; rate 0.400 kg/ha): 9 (9 - Complete kill)
STEME rating ([14]; rate 0.025 kg/ha): 8 (8 - Approaching complete kill)
STEME rating ([14]; rate 0.100 kg/ha): 9 (9 - Complete kill)
STEME rating ([14]; rate 0.400 kg/ha): 9 (9 - Complete kill)
ABUTH rating ([15]; rate 0.025 kg/ha): 7 (7 - Good herbicidal effect)
ABUTH rating ([15]; rate 0.100 kg/ha): 8 (8 - Approaching complete kill)
ABUTH rating ([15]; rate 0.400 kg/ha): 8 (8 - Approaching complete kill)
GALAP rating ([16]; rate 0.025 kg/ha): 6 (6 - Herbicidal effect)
GALAP rating ([16]; rate 0.100 kg/ha): 9 (9 - Complete kill)
GALAP rating ([16]; rate 0.400 kg/ha): 9 (9 - Complete kill)
MATIN rating ([17]; rate 0.025 kg/ha): 4 (4 - Injury)
MATIN rating ([17]; rate 0.100 kg/ha): 6 (6 - Herbicidal effect)
MATIN rating ([17]; rate 0.400 kg/ha): 8 (8 - Approaching complete kill)
IPOHE rating ([18]; rate 0.025 kg/ha): 9 (9 - Complete kill)
IPOHE rating ([18]; rate 0.100 kg/ha): 9 (9 - Complete kill)
IPOHE rating ([18]; rate 0.400 kg/ha): 9 (9 - Complete kill)
ALOMY rating ([19]; rate 0.025 kg/ha): 4 (4 - Injury)
ALOMY rating ([19]; rate 0.100 kg/ha): 7 (7 - Good herbicidal effect)
ALOMY rating ([19]; rate 0.400 kg/ha): 8 (8 - Approaching complete kill)

Cc1cc(OCC=CSC(F)(F)F)nc(Oc2cc(C(F)(F)F)nn2C)c1 [Example 2, 2-(1-Methyl-3-trifluoromethylpyrazol-5-yloxy)-4-methyl-6-(3-trifluoromethylthioprop-2-enyloxy)pyridine]
ECHCG rating ([1]; rate 0.025 kg/ha): 7 (7 - Good herbicidal effect)
ECHCG rating ([1]; rate 0.100 kg/ha): 8 (8 - Approaching complete kill)
ECHCG rating ([1]; rate 0.400 kg/ha): 8 (8 - Approaching complete kill)
SETVI rating ([2]; rate 0.025 kg/ha): 9 (9 - Complete kill)
SETVI rating ([2]; rate 0.100 kg/ha): 9 (9 - Complete kill)
SETVI rating ([2]; rate 0.400 kg/ha): 9 (9 - Complete kill)
STEME rating ([3]; rate 0.025 kg/ha): 9 (9 - Complete kill)
STEME rating ([3]; rate 0.100 kg/ha): 9 (9 - Complete kill)
STEME rating ([3]; rate 0.400 kg/ha): 9 (9 - Complete kill)
ABUTH rating ([4]; rate 0.025 kg/ha): 3 (3 - Moderate effect)
ABUTH rating ([4]; rate 0.100 kg/ha): 7 (7 - Good herbicidal effect)
ABUTH rating ([4]; rate 0.400 kg/ha): 8 (8 - Approaching complete kill)
GALAP rating ([5]; rate 0.025 kg/ha): 7 (7 - Good herbicidal effect)
GALAP rating ([5]; rate 0.400 kg/ha): 8 (8 - Approaching complete kill)
MATIN rating ([6]; rate 0.025 kg/ha): 8 (8 - Approaching complete kill)
MATIN rating ([6]; rate 0.100 kg/ha): 8 (8 - Approaching complete kill)
MATIN rating ([6]; rate 0.400 kg/ha): 9 (9 - Complete kill)
IPOHE rating ([7]; rate 0.025 kg/ha): 5 (5 - Definite injury)
IPOHE rating ([7]; rate 0.100 kg/ha): 5 (5 - Definite injury)
IPOHE rating ([7]; rate 0.400 kg/ha): 8 (8 - Approaching complete kill)
ALOMY rating ([8]; rate 0.025 kg/ha): 8 (8 - Approaching complete kill)
ALOMY rating ([8]; rate 0.100 kg/ha): 8 (8 - Approaching complete kill)
ALOMY rating ([8]; rate 0.400 kg/ha): 8 (8 - Approaching complete kill)
TRZAW rating ([9]; rate 0.025 kg/ha): 2 (2 - Slight effect)
TRZAW rating ([9]; rate 0.100 kg/ha): 3 (3 - Moderate effect)
TRZAW rating ([9]; rate 0.400 kg/ha): 5 (5 - Definite injury)
GLXMA rating ([10]; rate 0.025 kg/ha): 0 (0 - No effect)
GLXMA rating ([10]; rate 0.100 kg/ha): 2 (2 - Slight effect)
GLXMA rating ([10]; rate 0.400 kg/ha): 4 (4 - Injury)
ZEAMX rating (Zea mays (ZEAMX, maize); rate 0.025 kg/ha): 4 (4 - Injury)
ZEAMX rating (Zea mays (ZEAMX, maize); rate 0.100 kg/ha): 5 (5 - Definite injury)
ZEAMX rating (Zea mays (ZEAMX, maize); rate 0.400 kg/ha): 5 (5 - Definite injury)
ECHCG rating ([11]; rate 0.025 kg/ha): 8 (8 - Approaching complete kill)
ECHCG rating ([11]; rate 0.100 kg/ha): 8 (8 - Approaching complete kill)
ECHCG rating ([11]; rate 0.400 kg/ha): 8 (8 - Approaching complete kill)
LOLMU rating [12]: 8 (8 - Approaching complete kill)
SETVI rating ([13]; rate 0.025 kg/ha): 7 (7 - Good herbicidal effect)
SETVI rating ([13]; rate 0.100 kg/ha): 8 (8 - Approaching complete kill)
SETVI rating ([13]; rate 0.400 kg/ha): 8 (8 - Approaching complete kill)
STEME rating ([14]; rate 0.025 kg/ha): 4 (4 - Injury)
STEME rating ([14]; rate 0.100 kg/ha): 5 (5 - Definite injury)
STEME rating ([14]; rate 0.400 kg/ha): 5 (5 - Definite injury)
ABUTH rating ([15]; rate 0.025 kg/ha): 6 (6 - Herbicidal effect)
ABUTH rating ([15]; rate 0.100 kg/ha): 7 (7 - Good herbicidal effect)
ABUTH rating ([15]; rate 0.400 kg/ha): 7 (7 - Good herbicidal effect)
GALAP rating ([16]; rate 0.025 kg/ha): 6 (6 - Herbicidal effect)
GALAP rating ([16]; rate 0.100 kg/ha): 7 (7 - Good herbicidal effect)
GALAP rating ([16]; rate 0.400 kg/ha): 7 (7 - Good herbicidal effect)
MATIN rating ([17]; rate 0.025 kg/ha): 6 (6 - Herbicidal effect)
MATIN rating ([17]; rate 0.100 kg/ha): 6 (6 - Herbicidal effect)
MATIN rating ([17]; rate 0.400 kg/ha): 6 (6 - Herbicidal effect)
IPOHE rating ([18]; rate 0.025 kg/ha): 8 (8 - Approaching complete kill)
IPOHE rating ([18]; rate 0.100 kg/ha): 9 (9 - Complete kill)
IPOHE rating ([18]; rate 0.400 kg/ha): 9 (9 - Complete kill)
ALOMY rating ([19]; rate 0.025 kg/ha): 7 (7 - Good herbicidal effect)
ALOMY rating ([19]; rate 0.100 kg/ha): 7 (7 - Good herbicidal effect)
ALOMY rating ([19]; rate 0.400 kg/ha): 7 (7 - Good herbicidal effect)
